Data as given in patent US20220056015A1, “KIF18A INHIBITORS” (AMGEN INC., priority 2018, published 2022).

Target: T1, Recombinant human KIF18A (1-467 His-tagged) protein (Homo sapiens, UniProt Q8NI77)
T1 construct: Recombinant human KIF18A (1-467 His-tagged) protein; His
Assay: KIF18A Enzyme Assay: microtubule-stimulated ATPase activity assay (ADP-Glo)
Format: biochemical
Conditions: 30 nM KIF18A, 30 μg/mL pig microtubules, ATP at Km 75 μM, room temperature, ADP-Glo luminescence
Text: KIF18A Enzyme Assay: Microtubule-stimulated ATPase activity assay is used to measure KIF18A enzyme activity after treatment with compound. Compounds were 2-fold serially diluted in DMSO (Sigma Inc) over 22-point concentration range. Recombinant human KIF18A (1-467 His-tagged) protein was expressed using a baculovirus system and purified by affinity chromatography by Amgen Inc. Concentrations of KIF18A protein, microtubules (MT), and ATP in the reaction were optimized for standardized homogenous enzyme assay using ADP-Glorm Kinase/ATPase Assay Kit (Promega Inc). The assay measures ADP formed from the ATPase reaction. […] Read luminescence using EnVision microplate reader with ultra-luminescence module (Perkin Elmer Inc). Concentration-response curve-fitting and ICn determination was performed using Genedata Screener Software (Standard 15.0.1, Genedata Inc) with a four-parameter logistic regression fit model.

T1 sequence (Q8NI77 1-467): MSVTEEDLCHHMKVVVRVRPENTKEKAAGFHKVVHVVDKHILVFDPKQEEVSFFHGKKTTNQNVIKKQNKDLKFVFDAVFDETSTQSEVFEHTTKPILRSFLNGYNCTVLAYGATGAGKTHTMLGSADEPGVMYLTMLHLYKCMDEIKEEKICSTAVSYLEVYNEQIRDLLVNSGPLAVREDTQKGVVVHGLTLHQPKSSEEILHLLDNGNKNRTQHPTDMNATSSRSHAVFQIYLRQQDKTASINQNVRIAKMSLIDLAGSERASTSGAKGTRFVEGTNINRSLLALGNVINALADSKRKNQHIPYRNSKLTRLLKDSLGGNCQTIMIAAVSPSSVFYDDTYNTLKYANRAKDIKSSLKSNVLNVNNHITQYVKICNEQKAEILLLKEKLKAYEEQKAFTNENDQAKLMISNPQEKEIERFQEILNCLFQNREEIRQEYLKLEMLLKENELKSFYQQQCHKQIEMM
T1 sequence (P02550 whole entry partner): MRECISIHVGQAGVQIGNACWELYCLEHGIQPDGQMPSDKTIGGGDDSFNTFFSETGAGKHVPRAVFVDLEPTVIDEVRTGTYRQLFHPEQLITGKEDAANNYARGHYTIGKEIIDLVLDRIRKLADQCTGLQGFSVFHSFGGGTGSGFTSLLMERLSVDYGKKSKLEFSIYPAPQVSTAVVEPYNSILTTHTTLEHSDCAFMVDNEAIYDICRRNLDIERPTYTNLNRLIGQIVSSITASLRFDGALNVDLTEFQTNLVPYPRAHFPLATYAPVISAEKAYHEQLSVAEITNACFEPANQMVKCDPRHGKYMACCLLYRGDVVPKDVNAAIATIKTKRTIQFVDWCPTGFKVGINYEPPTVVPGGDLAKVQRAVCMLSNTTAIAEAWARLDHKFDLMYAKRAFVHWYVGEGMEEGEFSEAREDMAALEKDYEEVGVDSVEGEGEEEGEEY
T1 sequence (P02554 whole entry partner): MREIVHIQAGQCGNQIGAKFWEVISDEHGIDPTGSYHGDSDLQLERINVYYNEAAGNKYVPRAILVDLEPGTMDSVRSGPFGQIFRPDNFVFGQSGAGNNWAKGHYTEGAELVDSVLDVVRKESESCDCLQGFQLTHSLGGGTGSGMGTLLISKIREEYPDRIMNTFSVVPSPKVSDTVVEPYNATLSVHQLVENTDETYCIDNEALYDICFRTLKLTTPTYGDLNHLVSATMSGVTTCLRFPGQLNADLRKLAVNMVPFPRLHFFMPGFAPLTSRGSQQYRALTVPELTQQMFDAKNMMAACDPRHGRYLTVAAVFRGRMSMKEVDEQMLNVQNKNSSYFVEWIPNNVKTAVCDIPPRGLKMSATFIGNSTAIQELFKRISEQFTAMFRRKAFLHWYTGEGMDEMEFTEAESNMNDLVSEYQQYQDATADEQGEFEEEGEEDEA

SMILES | IC50 [nM]
Cc1cc(NC(=O)c2ccc(NS(=O)(=O)CCO)nc2N2CCC3(CC2)CC3)nc(N2CCC(F)(F)CC2)n1 [Example 1, N-(2-(4,4-difluoropiperidin-1-yl)-6-methylpyrimidin-4-yl)-6-((2-hydroxyethyl)sulfonamido)-2-(6-azaspiro[2.5]octan-6-yl)nicotinamide] | 31
Cc1cc(NC(=O)c2ccc(NS(=O)(=O)CCO)nc2N2CCC3(CC2)CC3)nc(N2CCO[C@H](C)C2)n1 [Example 1-1, (R)-6-((2-Hydroxyethyl)sulfonamido)-N-(6-methyl-2-(2-methylmorpholino)pyrimidin-4-yl)-2-(6-azaspiro[2.5]octan-6-yl)nicotinamide] | 402
Cc1cc(NC(=O)c2ccc(NC3COC3)nc2N2CCC3(CC2)CC3)nc(N2CCO[C@H](C)C2)n1 [Example 2, (R)—N-(6-methyl-2-(2-methylmorpholino)pyrimidin-4-yl)-6-(oxetan-3-ylamino)-2-(6-azaspiro[2.5]octan-6-yl)nicotinamide] | 916
Cc1cc(NC(=O)c2ncc(NS(=O)(=O)CCO)cc2N2CCC3(CC2)CC3)nc(N2CCC(F)(F)CC2)n1 [Example 6, N-(2-(4,4-Difluoropiperidin-1-yl)-6-methylpyrimidin-4-yl)-5-((2-hydroxyethyl)sulfonamido)-3-(6-azaspiro[2.5]octan-6-yl)picolinamide] | 15
Cc1cc(NC(=O)c2cnc(NS(=O)(=O)CCO)cc2N2CCC3(CC2)CC3)nc(N2CCC(F)(F)CC2)n1 [Example 7, N-(2-(4,4-Difluoropiperidin-1-yl)-6-methylpyrimidin-4-yl)-6-((2-hydroxyethyl)sulfonamido)-4-(6-azaspiro[2.5]octan-6-yl)nicotinamide] | 13
Cc1cc(NC(=O)c2ncc(S(=O)(=O)C3CC3)cc2N2CCC3(CC2)CC3)nc(N2CCC(F)(F)CC2)n1 [Example 8, 5-(Cyclopropylsulfonyl)-N-(2-(4,4-difluoropiperidin-1-yl)-6-methylpyrimidin-4-yl)-3-(6-azaspiro[2.5]octan-6-yl)picolinamide] | 91
Cc1cc(NC(=O)c2cc(NCCO)ncc2N2CCC3(CC2)CC3)nc(N2CCC(F)(F)CC2)n1 [Example 9, N-(2-(4,4-Difluoropiperidin-1-yl)-6-methylpyrimidin-4-yl)-2-((2-hydroxyethyl)amino)-5-(6-azaspiro[2.5]octan-6-yl)isonicotinamide] | 394
Cc1cc(NC(=O)c2ncc(NS(=O)(=O)CCO)nc2N2CCC3(CC2)CC3)nc(N2CCC(F)(F)CC2)n1 [Example 10, N-(2-(4,4-Difluoropiperidin-1-yl)-6-methylpyrimidin-4-yl)-5-((2-hydroxyethyl)sulfonamido)-3-(6-azaspiro[2.5]octan-6-yl)pyrazine-2-carboxamide] | 80
O=C(Nc1ccc(NS(=O)(=O)CCO)cc1N1CCC2(CC1)CC2)c1ccnc(N2CCC(F)(F)CC2)c1 [Example 11, 2-(4,4-Difluoropiperidin-1-yl)-N-(4-((2-hydroxyethyl)sulfonamido)-2-(6-azaspiro[2.5]octan-6-yl)phenyl)isonicotinamide] | 27

Further lines, results first:

IC50 [nM] | SMILES
264 | Cc1cc(NC(=O)c2cnc(S(=N)(=O)C3CC3)cc2N2CCC3(CC2)CC3)nc(N2CCC(F)(F)CC2)n1 (single isomer, unassigned) [Example 4-1, 4-(6-Azaspiro[2.5]octan-6-yl)-6-(S-cyclopropylsulfonimidoyl)-N-(2-(4,4-difluoro-1-piperidinyl)-6-methyl-4-pyrimidinyl)-3-pyridinecarboxamide]
206 | Cc1cc(NC(=O)c2cnc([S@@](=N)(=O)C3CC3)cc2N2CCC3(CC2)CC3)nc(N2CCC(F)(F)CC2)n1 (single isomer, unassigned) [Example 4-2, 4-(6-Azaspiro[2.5]octan-6-yl)-6-(R-cyclopropylsulfonimidoyl)-N-(2-(4,4-difluoro-1-piperidinyl)-6-methyl-4-pyrimidinyl)-3-pyridinecarboxamide]
71 | Cc1cc(NC(=O)c2ncc(S(=N)(=O)C3CC3)cc2N2CCC3(CC2)CC3)nc(N2CCC(F)(F)CC2)n1 (single isomer, unassigned) [Example 5-2, 3-(6-Azaspiro[2.5]octan-6-yl)-5-(S-cyclopropylsulfonimidoyl)-N-(2-(4,4-difluoro-1-piperidinyl)-6-methyl-4-pyrimidinyl)-2-pyridinecarboxamide]
355 | Cc1cc(NC(=O)c2ccc(NC3(C)COC3)nc2N2CCC3(CC2)CC3)nc(N2CCO[C@H](C)C2)n1 [Example 2-1, (R)-N-(6-Methyl-2-(2-methylmorpholino)pyrimidin-4-yl)-6-((3-methyloxetan-3-yl)amino)-2-(6-azaspiro[2.5]octan-6-yl)nicotinamide]
218 | Cc1cc(NC(=O)c2ccc(NC3(CO)COC3)nc2N2CCC3(CC2)CC3)nc(N2CCO[C@H](C)C2)n1 [Example 2-2, (R)-6-((3-(Hydroxymethyl)oxetan-3-yl)amino)-N-(6-methyl-2-(2-methylmorpholino)pyrimidin-4-yl)-2-(6-azaspiro[2.5]octan-6-yl)nicotinamide]
453 | Cc1cc(NC(=O)c2ccc(NC3(C)COC3)nc2N2CCC3(CC2)CC3)nc(N2CCC(F)(F)CC2)n1 [Example 2-3, N-(2-(4,4-Difluoropiperidin-1-yl)-6-methylpyrimidin-4-yl)-6-((3-methyloxetan-3-yl)amino)-2-(6-azaspiro[2.5]octan-6-yl)nicotinamide]
173 | Cc1cc(NC(=O)c2ccc(NC3(CO)COC3)nc2N2CCC3(CC2)CC3)nc(N2CCC(F)(F)CC2)n1 [Example 2-4, N-(2-(4,4-Difluoropiperidin-1-yl)-6-methylpyrimidin-4-yl)-6-((3-(hydroxymethyl)oxetan-3-yl)amino)-2-(6-azaspiro[2.5]octan-6-yl)nicotinamide]
230 | Cc1cc(NC(=O)c2ccc(NC(C)(C)CO)nc2N2CCC3(CC2)CC3)nc(N2CCO[C@H](C)C2)n1 [Example 2-5, (R)-6-((1-Hydroxy-2-methylpropan-2-yl)amino)-N-(6-methyl-2-(2-methylmorpholino)pyrimidin-4-yl)-2-(6-azaspiro[2.5]octan-6-yl)nicotinamide]
122 | Cc1cc(NC(=O)c2ncc(NC(C)(C)CO)cc2N2CCC3(CC2)CC3)nc(N2CCC(F)(F)CC2)n1 [Example 2-6, N-(2-(4,4-Difluoropiperidin-1-yl)-6-methylpyrimidin-4-yl)-5-((1-hydroxy-2-methylpropan-2-yl)amino)-3-(6-azaspiro[2.5]octan-6-yl)picolinamide]
55 | Cc1cc(NC(=O)c2cnc(NC(C)(C)CO)nc2N2CCC3(CC2)CC3)nc(N2CCC(F)(F)CC2)n1 [Example 2-7, N-(2-(4,4-Difluoropiperidin-1-yl)-6-methylpyrimidin-4-yl)-2-((1-hydroxy-2-methylpropan-2-yl)amino)-4-(6-azaspiro[2.5]octan-6-yl)pyrimidine-5-carboxamide]
88 | Cc1cc(NC(=O)c2ncc(NC(C)(C)CO)nc2N2CCC3(CC2)CC3)nc(N2CCC(F)(F)CC2)n1 [Example 2-8, N-(2-(4,4-Difluoropiperidin-1-yl)-6-methylpyrimidin-4-yl)-5-((1-hydroxy-2-methylpropan-2-yl)amino)-3-(6-azaspiro[2.5]octan-6-yl)pyrazine-2-carboxamide]
105 | Cc1cc(NC(=O)c2ncc([S@](=N)(=O)C3CC3)cc2N2CCC3(CC2)CC3)nc(N2CCC(F)(F)CC2)n1 [Example 5-1, 3-(6-Azaspiro[2.5]octan-6-yl)-5-(R-cyclopropylsulfonimidoyl)-N-(2-(4,4-difluoro-1-piperidinyl)-6-methyl-4-pyrimidinyl)-2-pyridinecarboxamide]
272 | Cc1cc(NC(=O)c2cnc(NS(=O)(=O)CCO)nc2N2CCC3(CC2)CC3)nc(N2CCC(F)(F)CC2)n1 [Example 7-1, N-(2-(4,4-difluoropiperidin-1-yl)-6-methylpyrimidin-4-yl)-2-((2-hydroxyethyl)sulfonamido)-4-(6-azaspiro[2.5]octan-6-yl)pyrimidine-5-carboxamide]
